Where “and” joins values, the source holds several entries; their conditions need not be identical. Identical values can stand only once. Inconclusive results and toxic doses are left out.
System: L1210 leukemia ip in BDF1 mice, survival T/C
Test: NCI In Vivo Anticancer Drug Screen. Data for tumor model L1210 Leukemia (intraperitoneal) in B6D2F1 (BDF1) mice
Details: endpoint: mean survival time, higher = longer survival
Summary of the method: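 Read-out is survival time, reported as the treated-group measurement over the vehicle-control measurement.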

[1] = dose: 100.0 mg/kg/injection, schedule: Q04DX003 (ip), vehicle: saline with Tween-80

SMILES: COc1ccc(OC)c(NC(=S)N/N=C(/C)c2cc(Cl)c(C)cc2O)c1
- T/C (dose: 12.5 mg/kg/injection, schedule: Q04DX002 (ip), vehicle: Klucel (hydroxypropylcellulose) (HPC)): 112 % of control
- T/C (dose: 25.0 mg/kg/injection, schedule: Q04DX002 (ip), vehicle: Klucel (hydroxypropylcellulose) (HPC)): 97 % of control
- T/C (dose: 50.0 mg/kg/injection, schedule: Q04DX002 (ip), vehicle: Klucel (hydroxypropylcellulose) (HPC)): 97 % of control

SMILES: Cc1ccc(C)c(CCN)c1
- T/C (dose: 25.0 mg/kg/injection, schedule: Q01DX009 (ip), vehicle: saline with Tween-80): 103 % of control
- T/C (dose: 50.0 mg/kg/injection, schedule: Q01DX009 (ip), vehicle: saline with Tween-80): 98 % of control
- T/C (dose: 50.0 mg/kg/injection, schedule: Q04DX003 (ip), vehicle: saline with Tween-80): 100 % of control
- T/C (dose: 100.0 mg/kg/injection, schedule: Q01DX009 (ip), vehicle: saline with Tween-80): 94 % of control
- T/C [1]: 92 % of control

SMILES: O=C1C2=C(C(=O)c3ccccc31)C1C=CC2CC1
- T/C (dose: 50.0 mg/kg/injection, schedule: Q01DX001 (ip), vehicle: carboxymethylcellulose (CMC)): 111 % of control
- T/C (dose: 100.0 mg/kg/injection, schedule: Q01DX001 (ip), vehicle: carboxymethylcellulose (CMC)): 101 % of control

SMILES: CC1=C2CCCC3(OCCO3)C2(C)CCC1=O (centres undefined)
- T/C (dose: 100.0 mg/kg/injection, schedule: Q04DX002 (ip), vehicle: other): 98 % of control
- T/C (dose: 200.0 mg/kg/injection, schedule: Q04DX002 (ip), vehicle: other): 109 % of control
- T/C (dose: 400.0 mg/kg/injection, schedule: Q04DX002 (ip), vehicle: other): 102 % of control

SMILES: O=P(Cc1ccccc1)(C(O)c1ccccc1)C(O)c1ccccc1 (centres undefined)
- T/C (dose: 100.0 mg/kg/injection, schedule: Q04DX003 (ip), vehicle: Klucel (hydroxypropylcellulose) (HPC)): 87 % of control
- T/C (dose: 200.0 mg/kg/injection, schedule: Q04DX003 (ip), vehicle: Klucel (hydroxypropylcellulose) (HPC)): 91 % of control

SMILES: CN(C)CCOC(=O)c1ccc(N)cc1
- T/C (dose: 100.0 mg/kg/injection, schedule: Q04DX003 (ip), vehicle: saline): 96 % of control
- T/C (dose: 200.0 mg/kg/injection, schedule: Q04DX003 (ip), vehicle: saline): 98 % of control

SMILES: O=C(NO)c1ccccn1
- T/C (dose: 90.0 mg/kg/injection, schedule: Q01DX015 (ip), vehicle: water): 97 % of control
- T/C (dose: 130.0 mg/kg/injection, schedule: Q01DX015 (ip), vehicle: water): 101 % of control
- T/C (dose: 133.0 mg/kg/injection, schedule: Q01DX015 (ip), vehicle: water): 97 % of control
- T/C (dose: 200.0 mg/kg/injection, schedule: Q01DX015 (ip), vehicle: water): 110 % of control

SMILES: CC1(C)CCC(NC(=O)N(CCF)N=O)CC1
- T/C (dose: 9.0 mg/kg/injection, schedule: Q01DX001 (ip), vehicle: other): 115 % of control
- T/C (dose: 13.0 mg/kg/injection, schedule: Q01DX001 (ip), vehicle: other): 122 % of control
- T/C (dose: 37.0 mg/kg/injection, schedule: Q01DX001 (ip), vehicle: other): 188 % of control
- T/C (dose: 50.0 mg/kg/injection, schedule: Q01DX001 (ip), vehicle: other): 352 % of control
- T/C (dose: 75.0 mg/kg/injection, schedule: Q01DX001 (ip), vehicle: other): 352 % of control

SMILES: CCSc1ccc2c(cc1=O)[C@@H](NC1OC(CO)C(O)C(O)C1O)CCc1cc(OC)c(OC)c(OC)c1-2 (some centres undefined)
- T/C (dose: 50.0 mg/kg/injection, schedule: Q01DX009 (ip), vehicle: other): 105 % of control
- T/C (dose: 100.0 mg/kg/injection, schedule: Q01DX009 (ip), vehicle: other): 102 % of control
- T/C (dose: 200.0 mg/kg/injection, schedule: Q01DX009 (ip), vehicle: other): 114 % of control
- T/C (dose: 400.0 mg/kg/injection, schedule: Q01DX009 (ip), vehicle: other): 114 % of control

SMILES: Nc1ccc2cc3ccccc3cc2c1
- T/C (dose: 12.5 mg/kg/injection, schedule: Q01DX015 (ip), vehicle: saline): 104 % of control
- T/C (dose: 25.0 mg/kg/injection, schedule: Q01DX015 (ip), vehicle: saline): 95 % of control
- T/C (dose: 50.0 mg/kg/injection, schedule: Q01DX015 (ip), vehicle: saline): 95 % of control
- T/C (dose: 100.0 mg/kg/injection, schedule: Q01DX015 (ip), vehicle: saline): 97 % of control

SMILES: O=S(=O)(c1ccc(OCC(O)COc2ccc(S(=O)(=O)c3ccc(OCC4CO4)cc3)cc2)cc1)c1ccc(OCC2CO2)cc1 (centres undefined)
- T/C (dose: 100.0 mg/kg/injection, schedule: Q01DX001 (ip), vehicle: saline): 106 % of control
- T/C (dose: 200.0 mg/kg/injection, schedule: Q01DX001 (ip), vehicle: saline): 109 % of control
- T/C (dose: 400.0 mg/kg/injection, schedule: Q01DX001 (ip), vehicle: saline): 104 % of control

SMILES: O=CNC(Cc1ccccc1)Cc1ccccc1
- T/C (dose: 5.0 mg/kg/injection, schedule: Q01DX009 (ip), vehicle: Klucel (hydroxypropylcellulose) (HPC)): 98 % of control
- T/C (dose: 5.0 mg/kg/injection, schedule: Q04DX003 (ip), vehicle: Klucel (hydroxypropylcellulose) (HPC)): 103 % of control
- T/C (dose: 10.0 mg/kg/injection, schedule: Q01DX009 (ip), vehicle: Klucel (hydroxypropylcellulose) (HPC)): 102 % of control
- T/C (dose: 10.0 mg/kg/injection, schedule: Q04DX003 (ip), vehicle: Klucel (hydroxypropylcellulose) (HPC)): 103 % of control
- T/C (dose: 20.0 mg/kg/injection, schedule: Q01DX009 (ip), vehicle: Klucel (hydroxypropylcellulose) (HPC)): 102 % of control
- T/C (dose: 20.0 mg/kg/injection, schedule: Q04DX003 (ip), vehicle: Klucel (hydroxypropylcellulose) (HPC)): 102 % of control and 107 % of control

SMILES: CC1(C)C2CCC1(C)C(OC(=O)c1ccc([N+](=O)[O-])cc1)C2OC(=O)c1ccc([N+](=O)[O-])cc1 (centres undefined)
- T/C (dose: 75.0 mg/kg/injection, schedule: Q01DX009 (ip), vehicle: saline): 108 % of control
- T/C (dose: 150.0 mg/kg/injection, schedule: Q01DX009 (ip), vehicle: saline): 103 % of control
- T/C (dose: 300.0 mg/kg/injection, schedule: Q01DX009 (ip), vehicle: saline): 97 % of control

SMILES: O=C1OC(c2ccc3c(c2)OCO3)C(C(=O)CCl)c2ccccc21 (centres undefined)
- T/C [1]: 97 % of control
- T/C (dose: 200.0 mg/kg/injection, schedule: Q04DX003 (ip), vehicle: saline with Tween-80): 93 % of control

SMILES: CN=C(NC)c1ccc(NC(=O)c2cc(C(=O)Nc3ccc(C(=NC)NC)cc3)cc([N+](=O)[O-])c2)cc1
- T/C (dose: 2.0 mg/kg/injection, schedule: Q01DX Z (ip), vehicle: water): 97 % of control
- T/C (dose: 4.0 mg/kg/injection, schedule: Q01DX Z (ip), vehicle: water): 100 % of control
- T/C (dose: 7.5 mg/kg/injection, schedule: Q01DX Z (ip), vehicle: saline): 100 % of control
- T/C (dose: 7.5 mg/kg/injection, schedule: Q01DX Z (ip), vehicle: water): 112 % of control
- T/C (dose: 15.0 mg/kg/injection, schedule: Q01DX Z (ip), vehicle: saline): 96 % of control and 110 % of control
- T/C (dose: 15.0 mg/kg/injection, schedule: Q01DX Z (ip), vehicle: water): 108 % of control

SMILES: Nc1[nH]c(=S)ncc1-c1ccccc1Cl
- T/C (dose: 6.25 mg/kg/injection, schedule: Q01DX009 (ip), vehicle: Klucel (hydroxypropylcellulose) (HPC)): 94 % of control
- T/C (dose: 12.5 mg/kg/injection, schedule: Q01DX009 (ip), vehicle: Klucel (hydroxypropylcellulose) (HPC)): 94 % of control
- T/C (dose: 25.0 mg/kg/injection, schedule: Q01DX009 (ip), vehicle: Klucel (hydroxypropylcellulose) (HPC)): 97 % of control
- T/C (dose: 100.0 mg/kg/injection, schedule: Q01DX009 (ip), vehicle: Klucel (hydroxypropylcellulose) (HPC)): 88 % of control

SMILES: CCC(C)C1NC(=O)C(NC(=O)c2c3nc4c(C(=O)NC5C(=O)NC(C(C)CC)C(=O)N6CCCC6C(=O)N(C)CC(=O)N(C)C(C(C)C)C(=O)OC5C)cc(N)c(C)c4oc-3c(C)c(=O)c2N)C(C)OC(=O)C(C(C)C)N(C)C(=O)CN(C)C(=O)C2CCCN2C1=O (centres undefined)
- T/C (dose: 75.0 micrograms/kg/injection, schedule: Q01DX009 (ip), vehicle: saline + alcohol): 119 % of control
- T/C (dose: 100.0 micrograms/kg/injection, schedule: Q01DX009 (ip), vehicle: saline + alcohol): 121 % of control
- T/C (dose: 150.0 micrograms/kg/injection, schedule: Q01DX009 (ip), vehicle: saline + alcohol): 124 % of control
- T/C (dose: 300.0 micrograms/kg/injection, schedule: Q01DX009 (ip), vehicle: saline + alcohol): 105 % of control
- T/C (dose: 300.0 micrograms/kg/injection, schedule: Q04DX003 (ip), vehicle: saline + alcohol): 122 % of control
- T/C (dose: 400.0 micrograms/kg/injection, schedule: Q01DX009 (ip), vehicle: saline + alcohol): 86 % of control

SMILES: CCCCCCCC/C=C\CCCCCCCC(=O)OCC
- T/C (dose: 100.0 mg/kg/injection, schedule: Q01DX001 (ip), vehicle: saline with Tween-80): 98 % of control
- T/C (dose: 200.0 mg/kg/injection, schedule: Q01DX001 (ip), vehicle: saline with Tween-80): 107 % of control
- T/C (dose: 400.0 mg/kg/injection, schedule: Q01DX001 (ip), vehicle: saline with Tween-80): 95 % of control

SMILES: CN(CCC#N)c1ccc(-c2cc(C(=O)O)c3cc4ccccc4cc3n2)cc1
- T/C (dose: 200.0 mg/kg/injection, schedule: Q04DX002 (ip), vehicle: Klucel (hydroxypropylcellulose) (HPC)): 110 % of control
- T/C (dose: 400.0 mg/kg/injection, schedule: Q04DX002 (ip), vehicle: Klucel (hydroxypropylcellulose) (HPC)): 95 % of control

Reference: PubChem BioAssay AID248 (DTP/NCI, 2004)
